Assay results reported in patent publication US6254853A, “Water soluble pro-drugs of propofol” (Vyrex Corporation, priority 1998, dated 2001).
Entries after “also recorded” stand apart in the source; their conditions may differ.

Key:
[1] = In vitro hydrolysis of propofol esters to propofol in human saliva; format: in vitro ADME; settings: room temperature, approximate
Procedure: (§1) In vitro hydrolysis of propofol esters in various media
(§2) General procedure: Propofol ester was dissolved in the test medium at room temperature, and samples were removed periodically for analysis. The samples were extracted with hexane, the extracts were evaporated to dryness, and the residues were taken up in methanol. Analysis was by HPLC using methanol solvent through an ODS column and UV detection at 260 nm.
(§3) The approximate half-life for the hydrolysis of propofol hemisuccinate to propofol in various media were as follows: […]

[2] = tested on: low density lipoprotein (LDL); test: Effect of propofol esters on copper-promoted oxidation of LDL (conjugated dienes); format: biochemical, human; settings: 5 μM; 100 μg/ml LDL, 5 μM copper sulfate
Source text: (§4) The following experiment is based on the use of low density lipoprotein (LDL) as an oxidizable substrate. LDL is one of the plasma lipoproteins whose oxidation is thought to contribute to the pathogenesis of atherosclerosis. The copper-promoted, the hydrogen peroxide-/horseradish peroxidase-promoted and the myeloperoxidase-promoted oxidation of LDL are models for the free radical-induced oxidation of LDL that occurs in vivo.
(§5) LDL was isolated from heparinized plasma of normal human donors by ultracentrifugation. Most of the experiments described in this study were performed immediately after isolation. Examples and further details of the experimental procedures may be found in N. Santanam et al. J. Clin Invest. 95(6):2594 (1995) and FEBS Leters, 414:549-551 (1997).
(§6) The formation of conjugated dienes was measured in a spectrophotometer (model DB-3500; SLM-AMINCO, Urbana, Ill.) equipped with a 12 position sample changer. Samples and references were measured continuously for periods of up to several hours. Typically, 100 μg/ml of LDL was incubated in PBS with 1 U horseradish peroxidase (type X, 260 U/mg) in the presence of 50 μM H2 O2. For copper-mediated oxidation, 100 μg/ml LDL was incubated with 5 μM copper sulfate solution.

Water solubility = settings: in words
[3] = tested on: low density lipoprotein (LDL); test: Effect of propofol esters on hydrogen peroxide/horseradish peroxidase-promoted oxidation of LDL (conjugated dienes); format: biochemical, human; settings: 5 μM; 100 μg/ml LDL, 1 U horseradish peroxidase, 50 μM H2O2
Source text: as §4, §5, §6

[4] = in words; background knowledge; cited from earlier work
lipid peroxidation = settings: Misacchia et al. 1991; cited from earlier work
spinal cord = settings: literature; cited from earlier work
[5] = literature; cited from earlier work
colorectal cancer tumors = settings: mice; co-administered with 5-fluorouracil or doxorubicin; Chinery et al. 1997; cited from earlier work
[6] = In vitro hydrolysis of propofol esters to propofol in water (PBS buffer pH 7.4); format: in vitro ADME; settings: room temperature, approximate
Procedure: as §1, §2, §3

[7] = In vitro hydrolysis of propofol esters to propofol in albumin; format: in vitro ADME; settings: room temperature, approximate
Procedure: as §1, §2, §3

[8] = In vitro hydrolysis of propofol esters to propofol in human plasma; format: in vitro ADME; settings: room temperature, approximate
Procedure: as §1, §2, §3

[9] = In vivo hydrolysis of propofol hemisuccinate after gavage (blood levels of propofol; observation of the animals); design: species or system male Sprague-Dawley rats; settings: rat, two days following dosing
Procedure: At a dosage of 400 mg of propofol hemisuccinate per kg body weight, the blood level of propofol at 4 hrs was about 1 μg/ml.

[10] = In vitro hydrolysis of propofol esters to propofol in human whole blood; format: in vitro ADME; settings: room temperature, approximate
Procedure: as §1, §2, §3

[11] = tested on: Human low density lipoprotein (huLDL); test: Effect of propofol esters on myeloperoxidase-mediated oxidation of LDL (conjugated dienes); format: biochemical; settings: concentration not given
Source text: as §4, §5
Human low density lipoprotein (huLDL) in the presence of myeloperoxidase undergoes oxidative modification. The oxidative damage may be measured by spectrophotometric detection of the resulting conjugated dienes (N. Santanam & S. Parthasarathy, J. Clin. Invest, 95(6):2594 (1995)).

[12] = In vitro hydrolysis of propofol esters to propofol in rat whole blood; format: in vitro ADME; settings: room temperature, approximate
Procedure: as §1, §2, §3

CC(C)c1cccc(C(C)C)c1OP(=O)(O)O [mono(propofol) phosphate]
Half-Life to Hydrolysis [1]: about four
effect on copper-promoted oxidation of LDL [2]: not significantly affected
solubility in water (Water solubility): most soluble
effect on oxidation of LDL in the presence of horseradish peroxidase/hydrogen peroxide [3]: not significantly affected

CC(C)c1cccc(C(C)C)c1O [propofol, 2,6-diisopropylphenol]
water solubility of propofol [4]: almost completely insoluble in water; also recorded: very low water solubility
effect on copper-promoted oxidation of LDL [2]: almost totally inhibited
inhibition of lipid peroxidation (lipid peroxidation): inhibit lipid peroxidation
effect on oxidation of LDL in the presence of horseradish peroxidase/hydrogen peroxide [3]: almost totally inhibited

Cc1c(C)c2c(c(C)c1O)CCC(C)(CCCC(C)CCCC(C)CCCC(C)C)O2 (stereo not drawn) [Alpha-tocopherol]
effect on chronic neurological recovery (spinal cord): enhance chronic neurological recovery
effect on post-traumatic spinal cord ischemia (spinal cord): decrease post-traumatic spinal cord ischemia
uptake into the central nervous system [5]: very slowly
growth of colorectal cancer tumors (colorectal cancer tumors): inhibited the growth

CC(C)c1cccc(C(C)C)c1OC(=O)CCC(=O)O [propofol hemisuccinate, 2,6-diisopropylphenyl hydrogen succinate]
half-life [6]: ~336 h
half-life [7]: ~144 h
half-life [1]: ~96 h
effect on copper-promoted oxidation of LDL [2]: not significantly affected
solubility in water (Water solubility): most soluble
half-life [8]: ~72 h
condition of the animals through the two day observation period [9]: remained healthy and active
half-life [10]: ~48 h
effect on oxidation of LDL in the presence of myeloperoxidase [11]: partly inhibited; also recorded: significantly inhibited
effect on oxidation of LDL in the presence of horseradish peroxidase/hydrogen peroxide [3]: slightly inhibited
half-life [12]: ~2 h

CC(C)c1cccc(C(C)C)c1OP(=O)(O)Oc1c(C(C)C)cccc1C(C)C [di(propofol) phosphoric acid ester]
effect on copper-promoted oxidation of LDL [2]: not significantly affected
effect on oxidation of LDL in the presence of horseradish peroxidase/hydrogen peroxide [3]: not significantly affected

S=C(S)N1CCCC1 [pyrrolidine dithiocarbamate (PDTC), pyrrolidine dithiocarbamate]
growth of colorectal cancer tumors (colorectal cancer tumors): inhibited the growth
